Calls of active or inactive are those of the source. The rule behind the calls is not given here. Where a SMILES comes first, the peptide text is derived from it. The star is where a group is joined. CF3 = FC(F)(F)*

These results are taken from ChEMBL document CHEMBL1134397, “Synthesis, structure-activity relationships, and pharmacokinetic profiles of nonpeptidic alpha-keto heterocycles as novel inhibitors of human chymase” (J Med Chem, 2001).

One data set deals with Chymotrypsinogen A (Bos taurus, UniProt P00766). Description: Inhibitory activity against alpha chymotrypsin from bovine pancreas.
Data set [1] deals with T1, Chymase (Homo sapiens, UniProt P23946).
T1 sequence (P23946 whole entry): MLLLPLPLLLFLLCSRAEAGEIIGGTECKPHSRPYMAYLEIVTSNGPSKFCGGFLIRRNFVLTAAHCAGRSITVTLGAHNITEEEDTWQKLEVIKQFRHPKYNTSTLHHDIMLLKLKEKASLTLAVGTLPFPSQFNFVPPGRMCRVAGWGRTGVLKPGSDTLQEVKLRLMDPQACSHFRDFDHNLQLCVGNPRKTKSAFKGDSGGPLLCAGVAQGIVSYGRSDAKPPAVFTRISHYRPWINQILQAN
Kind of data set: inhibitory activity was evaluated against chymase from human heart.

Data set [2] deals with T1, Chymase. Description: Inhibitory activity evaluated against chymase from human heart.
A short description of data set [3]: Half life was evaluated when a dose of 1 mg/kg was administered intravenously to rats. Format: ADME, organism-based. Details: dose 1 mg/kg, route intravenous. Particulars: rat, in vivo, iv.
Data set [4] can be described thus: Pharmacokinetic parameter AUC was determined when a dose of 1 mg/kg was administered orally. The arrangement: dose 1 mg/kg, route oral. Particulars: rat, in vivo, po. Format: ADME, organism-based.
Data set [5] addresses Prothrombin (Homo sapiens) (UniProt P00734). Kind of data set: inhibitory activity against human plasma thrombin (10 uM); No inhibition. The class given is cell-free.
Data set [6] addresses T1, Chymase.
Data set [7] has as its target T2, Chymase (Rattus norvegicus, UniProt P50339).
T2 sequence (P50339 whole entry): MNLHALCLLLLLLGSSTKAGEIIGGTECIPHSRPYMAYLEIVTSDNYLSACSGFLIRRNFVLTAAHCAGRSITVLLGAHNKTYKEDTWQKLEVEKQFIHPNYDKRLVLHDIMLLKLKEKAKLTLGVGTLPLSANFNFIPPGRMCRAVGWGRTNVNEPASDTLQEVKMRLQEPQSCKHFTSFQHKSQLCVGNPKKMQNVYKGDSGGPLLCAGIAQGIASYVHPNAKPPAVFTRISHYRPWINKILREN
Description: Inhibitory activity against rat peritoneal chymase.

Data set [8] in a line: Time to reach Cmax when a dose of 1 mg/kg is administered orally. Format: ADME, organism-based. Details: dose 1 mg/kg, route oral. Particulars: rat, in vivo, po.
The nature of data set [9]: Pharmacokinetic parameter plasma clearance was determined at when a dose of 1 mg/kg is administered. Format: ADME, organism-based. The arrangement: dose 1 mg/kg. As to conditions: rat.
Data set [10] can be described thus: Steady state volume distribution was determined; steady state(ss). The class given is ADME, organism-based. Particulars: rat, in vivo.
Data set [11] in a line: Pharmacokinetic parameter AUC was determined when a dose of 1 mg/kg was administered intravenously. Format: ADME, organism-based. Details: dose 1 mg/kg, route intravenous. As to conditions: rat, in vivo, iv.
Data set [12] has as its target T3, Neutrophil elastase (Homo sapiens) (UniProt P08246).
T3 sequence (whole entry): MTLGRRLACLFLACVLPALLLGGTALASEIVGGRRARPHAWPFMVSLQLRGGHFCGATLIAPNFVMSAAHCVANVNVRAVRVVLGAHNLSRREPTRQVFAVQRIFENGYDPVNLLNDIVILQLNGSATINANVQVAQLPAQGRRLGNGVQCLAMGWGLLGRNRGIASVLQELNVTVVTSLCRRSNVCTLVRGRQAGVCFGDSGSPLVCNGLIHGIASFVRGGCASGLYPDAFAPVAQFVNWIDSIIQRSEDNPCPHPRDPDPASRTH
Kind of data set: Inhibitory activity against human leukocyte elastase (10 uM); No inhibition.

Data set [13] concerns the target Angiotensin-converting enzyme (Homo sapiens) (UniProt P12821). Kind of data set: Inhibitory activity against human angiotensin I converting enzyme (10 uM); No inhibition.
The target in another data set is T4, Mast cell protease 9 (Mus musculus, UniProt O35164).
T4 sequence (O35164 whole entry): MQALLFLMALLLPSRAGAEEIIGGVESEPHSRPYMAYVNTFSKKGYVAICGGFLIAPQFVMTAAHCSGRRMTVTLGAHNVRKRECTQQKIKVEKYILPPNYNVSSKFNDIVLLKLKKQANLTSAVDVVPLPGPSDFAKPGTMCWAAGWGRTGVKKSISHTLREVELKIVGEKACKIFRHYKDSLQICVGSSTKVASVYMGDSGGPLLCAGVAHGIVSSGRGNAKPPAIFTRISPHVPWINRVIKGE
Description: Inhibitory activity against mouse peritoneal chymase.

The nature of data set [14]: Oral Bioavailability was determined. The class given is ADME, organism-based. Particulars: rat, in vivo, read-out: BA.
A short description of data set [15]: Maximum plasma concentration was measured when a dose of 1 mg/kg is administered orally. Particulars: rat, po. Details: dose 1 mg/kg, route oral. Format: ADME, organism-based.
Another data set addresses T5, Cathepsin G (Homo sapiens, UniProt P08311).
T5 sequence (P08311 whole entry): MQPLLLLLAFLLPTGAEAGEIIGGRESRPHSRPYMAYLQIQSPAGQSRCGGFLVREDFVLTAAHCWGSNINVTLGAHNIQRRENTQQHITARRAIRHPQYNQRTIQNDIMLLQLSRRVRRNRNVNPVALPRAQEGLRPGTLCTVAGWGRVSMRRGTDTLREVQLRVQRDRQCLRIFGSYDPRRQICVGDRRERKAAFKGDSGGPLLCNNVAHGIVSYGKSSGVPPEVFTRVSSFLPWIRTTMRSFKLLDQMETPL
Kind of data set: Inhibitory activity against human cathepsin G.

Data set [16] addresses Prothrombin (Homo sapiens) (UniProt P00734). Kind of data set: Inhibitory activity against human plasma thrombin (10 uM); No inhibition. The class given is cell-free.

Chain of Angiotensin-converting enzyme (Homo sapiens) (P12821 whole entry): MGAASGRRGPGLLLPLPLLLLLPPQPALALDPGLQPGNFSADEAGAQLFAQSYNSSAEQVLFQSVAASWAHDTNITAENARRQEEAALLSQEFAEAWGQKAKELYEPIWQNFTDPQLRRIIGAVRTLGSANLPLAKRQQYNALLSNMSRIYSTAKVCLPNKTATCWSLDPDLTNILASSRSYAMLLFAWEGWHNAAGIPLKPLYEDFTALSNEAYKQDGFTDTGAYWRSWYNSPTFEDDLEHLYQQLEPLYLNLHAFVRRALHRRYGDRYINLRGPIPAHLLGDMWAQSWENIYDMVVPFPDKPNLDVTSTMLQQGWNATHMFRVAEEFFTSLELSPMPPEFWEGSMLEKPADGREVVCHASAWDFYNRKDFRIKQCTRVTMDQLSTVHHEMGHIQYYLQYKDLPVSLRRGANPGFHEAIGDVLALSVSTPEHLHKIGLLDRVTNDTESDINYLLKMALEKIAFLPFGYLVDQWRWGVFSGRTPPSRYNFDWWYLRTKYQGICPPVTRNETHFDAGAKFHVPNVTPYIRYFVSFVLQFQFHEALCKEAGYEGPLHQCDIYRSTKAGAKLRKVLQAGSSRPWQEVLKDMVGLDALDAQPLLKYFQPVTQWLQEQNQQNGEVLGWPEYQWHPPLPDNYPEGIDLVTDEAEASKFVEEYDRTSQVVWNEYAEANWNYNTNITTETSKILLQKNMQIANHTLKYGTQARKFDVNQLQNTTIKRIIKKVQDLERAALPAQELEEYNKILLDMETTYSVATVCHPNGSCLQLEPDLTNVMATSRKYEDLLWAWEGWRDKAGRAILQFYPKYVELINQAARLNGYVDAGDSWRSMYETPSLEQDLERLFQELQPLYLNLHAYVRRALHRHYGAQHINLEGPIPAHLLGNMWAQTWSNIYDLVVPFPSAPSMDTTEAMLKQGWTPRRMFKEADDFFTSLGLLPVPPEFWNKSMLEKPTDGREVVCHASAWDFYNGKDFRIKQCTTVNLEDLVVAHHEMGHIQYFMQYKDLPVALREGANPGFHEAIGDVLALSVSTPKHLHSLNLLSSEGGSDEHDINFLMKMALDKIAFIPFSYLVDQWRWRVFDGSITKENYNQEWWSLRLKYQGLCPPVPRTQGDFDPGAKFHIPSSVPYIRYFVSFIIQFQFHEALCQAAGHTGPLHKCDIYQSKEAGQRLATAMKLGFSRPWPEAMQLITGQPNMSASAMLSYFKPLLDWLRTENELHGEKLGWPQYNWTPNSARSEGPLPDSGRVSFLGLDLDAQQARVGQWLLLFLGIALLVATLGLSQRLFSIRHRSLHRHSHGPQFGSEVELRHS

Turning to `Nc1ccc2oc(C(=O)C(Cc3ccccc3)NC(=O)Cn3c(-c4ccc(F)cc4)ncc(N)c3=O)nc2c1` (stereo not drawn), on Chymotrypsinogen A, the Ki turned out to be 60 nM. This lies in the double-digit nanomolar range.
At Chymase [1], `CC(C)C[C@H](NC(=O)[C@@H](NC(=O)N[C@@H](Cc1ccccc1)C(=O)O)C1CCN=C(N)N1)C(=O)N[C@H](C=O)Cc1ccccc1` (stereo partly drawn) [CHYMOSTATIN] came in with a Ki of 13.1 nM.
With `COC(=O)c1ccc2oc(C(=O)C(Cc3ccccc3)NC(=O)Cn3c(-c4cccc(Cl)c4)ncc(N)c3=O)nc2c1` (stereo not drawn), the Ki stood at 3820 nM at Chymotrypsinogen A and 26.1 nM at Chymase [2].
The matching figures for `COC(=O)c1ccc2oc(C(=O)C(Cc3ccccc3)NC(=O)Cn3c(-c4cccc(C)c4)ncc(N)c3=O)nc2c1` (stereo not drawn): 47.7 nM and 44.2 nM.
Regarding `Nc1cnc(-c2ccc(F)cc2)n(CC(=O)NC(Cc2ccccc2)C(=O)c2nc3cc(-c4ccccc4)ccc3o2)c1=O` (stereo not drawn), on Chymase [1], the Ki turned out to be 174 nM.
As for `COC(=O)c1ccc2oc(C(=O)C(Cc3ccccc3)NC(=O)Cn3c(-c4cccc(F)c4)ncc(N)c3=O)nc2c1` (stereo not drawn), the figures for the Ki at Chymotrypsinogen A and on Chymase [2] were 1770 nM and 14.3 nM, respectively.
The matching figures for `CC(C)[C@H](N)C(=O)N1CCC[C@H]1C(=O)N[C@@H](Cc1ccccc1)C(=O)C(F)(F)F` (H-Val-Pro-Phe-CF3): 4400 nM and 82.1 nM.
On Chymotrypsinogen A, `Nc1cnc(-c2ccc(F)cc2)n(CC(=O)NC(Cc2ccccc2)C(=O)c2nc3cc(C(=O)O)ccc3o2)c1=O` (stereo not drawn) had a Ki of 133 nM.
With `CCN(CC)C(=O)c1ccc2oc(C(=O)C(Cc3ccccc3)NC(=O)Cn3c(-c4ccc(F)cc4)ncc(N)c3=O)nc2c1` (stereo not drawn), the Ki at Chymotrypsinogen A is 23.3 nM; on Chymase [2] it was 59.5 nM.
In turn, `COC(=O)c1ccc2oc(C(=O)C(Cc3ccccc3)NC(=O)Cn3c(-c4cccc(OC)c4)ncc(N)c3=O)nc2c1` (stereo not drawn) had a half-life in data set [3] of 35.7 h. In addition, the exposure (AUC) amounted to 20800 ng·h/mL in data set [4] and 108000 ng·h/mL in [11]. Also, the NA entry in data set [5], in data set [12] and in data set [13] was “inactive” in each case. Moreover, the Ki stood at 943 nM at Chymotrypsinogen A; 1.12 nM at Chymase [6]; 86.6 nM on Chymase [7]; 4.85 nM at Chymase [2]; 63.9 nM on Mast cell protease 9. In addition, the Tmax in data set [8] turned out to be 6 h. The clearance in data set [9] is 0.168 mL/min/kg. The same molecule gave a Vd in [10] of 0.469 L/kg. In [14], the bioavailability is 19.3%. Besides, the Cmax in data set [15] was determined as 396 ng/mL.
For the molecule `COC(=O)c1ccc2oc(C(=O)C(Cc3ccccc3)NC(=O)Cn3c(-c4cccnc4)ncc(N)c3=O)nc2c1` (stereo not drawn), the Ki at Chymotrypsinogen A stood at 45.1 nM; at Chymase [1] it was 77.4 nM.
As for `COC(=O)c1ccc2oc(C(=O)C(Cc3ccccc3)NC(=O)Cn3c(-c4cccc(N)c4)ncc(N)c3=O)nc2c1` (stereo not drawn), the inhibitory constant (Ki) on Chymotrypsinogen A was 855 nM; on Chymase [2], 5.6 nM.
In the same order, the values of `NC(=O)c1ccc2oc(C(=O)C(Cc3ccccc3)NC(=O)Cn3c(-c4ccc(F)cc4)ncc(N)c3=O)nc2c1` (stereo not drawn) are 53.4 nM and 94 nM.
Molecule `COC(=O)c1ccc2nc(C(=O)C(Cc3ccccc3)NC(=O)Cn3c(-c4ccc(F)cc4)ncc(N)c3=O)oc2c1` (stereo not drawn) showed a Ki at Chymotrypsinogen A of 71.3 nM. This lies in the double-digit nanomolar range.
On to `Nc1cnc(-c2ccc(F)cc2)n(CC(=O)NC(Cc2ccccc2)C(=O)c2nc3ncccc3o2)c1=O` (stereo not drawn), for which the Ki at Chymotrypsinogen A was determined as 60.5 nM; at Chymase [2], 60.6 nM.
For the molecule `Nc1cnc(-c2ccc(F)cc2)n(CC(=O)NC(Cc2ccccc2)C(=O)c2nc3cc(O)ccc3o2)c1=O` (stereo not drawn), the Ki on Chymotrypsinogen A is 2230 nM; at Chymase [2], 2120 nM.
Regarding `Nc1cnc(-c2ccc(F)cc2)n(CC(=O)NC(Cc2ccccc2)C(=O)c2nc3cc(F)ccc3o2)c1=O` (stereo not drawn), the Ki at Chymotrypsinogen A stood at 65.1 nM.
On to `CCNC(=O)c1ccc2oc(C(=O)C(Cc3ccccc3)NC(=O)Cn3c(-c4ccc(F)cc4)ncc(N)c3=O)nc2c1` (stereo not drawn), for which the Ki at Chymotrypsinogen A is 32.6 nM; on Chymase [2] it was 68.6 nM.
The matching figures for `CCOC(=O)c1ccc2oc(C(=O)C(Cc3ccccc3)NC(=O)Cn3c(-c4ccc(F)cc4)ncc(N)c3=O)nc2c1` (stereo not drawn): 477 nM and 30 nM.
As for `COC(=O)c1ccc2oc(C(=O)C(Cc3ccccc3)NC(=O)Cn3c(-c4ccc(F)cc4)ncc(N)c3=O)nc2c1` (stereo not drawn), the Ki on Cathepsin G was determined as 720 nM; at Chymotrypsinogen A, 52.9 nM; on Chymase [6], 3.68 nM; on Chymase [7] it was 103 nM; on Chymase [2] it was 22.6 nM; on Mast cell protease 9, 40.4 nM. Also, the NA result in [12], in data set [13] and in data set [16] was “inactive” each time.
For `COC(=O)c1ccc2oc(C(=O)C(Cc3ccccc3)NC(=O)Cn3c(-c4ccncc4)ncc(N)c3=O)nc2c1` (stereo not drawn), the Ki stood at 467 nM on Chymotrypsinogen A and 43.5 nM at Chymase [2].
In the case of `COC(=O)c1ccc2oc(C(=O)C(Cc3ccccc3)NC(=O)Cn3c(-c4cccc([N+](=O)[O-])c4)ncc(N)c3=O)nc2c1` (stereo not drawn), at Chymotrypsinogen A, affinity was put at a Ki of 11500 nM.
